Laboratory results taken from patent EP4741391A1, “NMT INHIBITOR, AND PREPARATION METHOD THEREFOR AND USE THEREOF” (Nanjing Synnocare Pharmaceutical Technology Co., Ltd., priority 2023, dated 2025).

Assays:
[1] = tested on: MV-4-11 cells; assay: Anti-proliferative activity against MV-4-11 cells (three-day cell viability chemiluminescence); type: cell-based; settings: MV-4-11 human monocytic leukemia cells, three days of exposure
Description: This study utilized a cell proliferation assay to analyze the cytotoxicity of MV-4-11 human monocytic leukemia cells after three days of exposure to NMT1 inhibitors. The MV-4-11 cell line was purchased from Nanjing Cobuilder Biotechnology Co., Ltd., and cultured in IMDM medium (Viva cell) in an incubator (Thermo) at 37 °C with 5% CO2. In this experiment, NMT1 inhibitors were dissolved in DMSO to obtain 600 µM stock solutions. Dose-response solutions were prepared with a top endpoint compound concentration of 3 µM, followed by three-fold serial dilutions in DMSO, totaling eight data points. The final concentration of DMSO was 0.5%.
MV-4-11 cells were seeded into a white 96-well plate, 80 µL of cell suspension per well, containing 6000 MV-4-11 cells. The cell plate was placed in the CO2 incubator for overnight culture. Then, 20 µL of NMT1 inhibitor solutions at different concentrations were added to the wells. The 96-well plate was placed back into the incubator for three days. Another cell plate was prepared, and the signal was read on the day of drug addition to serve as the maximum value (Max value in the equation below) for data analysis. To this cell plate, 25 µL of cell viability chemiluminescence detection reagent was added per well, followed by incubation at room temperature for 10 minutes to stabilize the luminescence signal. A multi-label analyzer was used for reading.
The raw data were converted into inhibition rates using the equation (Sample - Min) / (Max - Min) * 100%. The IC50 values were then determined by fitting a four-parameter curve (using the "log(inhibitor) vs. response - Variable slope" model in GraphPad Prism). Min: wells treated with 0.5% DMSO; Max: Day 0 wells. Table 1 provides the inhibitory activity of the compounds of the invention on MV-4-11 cell proliferation. Table 1: Compound Inhibitory Activity against NMT1 Enzyme (IC50) and Anti-proliferative Activity against MV-4-11 Cells (IC50)

[2] = molecular target: T1, NMT1 enzyme (Homo sapiens, UniProt P30419); assay: Inhibitory activity on NMT1 enzyme catalysis (fluorescence intensity, CPM probe); type: biochemical; settings: 6 nM NMT1 enzyme, 1.25 µM myristoyl-CoA, 20 µM HSPP60 SRC peptide, 45 minutes at 25 °C
T1 sequence (P30419 1-496): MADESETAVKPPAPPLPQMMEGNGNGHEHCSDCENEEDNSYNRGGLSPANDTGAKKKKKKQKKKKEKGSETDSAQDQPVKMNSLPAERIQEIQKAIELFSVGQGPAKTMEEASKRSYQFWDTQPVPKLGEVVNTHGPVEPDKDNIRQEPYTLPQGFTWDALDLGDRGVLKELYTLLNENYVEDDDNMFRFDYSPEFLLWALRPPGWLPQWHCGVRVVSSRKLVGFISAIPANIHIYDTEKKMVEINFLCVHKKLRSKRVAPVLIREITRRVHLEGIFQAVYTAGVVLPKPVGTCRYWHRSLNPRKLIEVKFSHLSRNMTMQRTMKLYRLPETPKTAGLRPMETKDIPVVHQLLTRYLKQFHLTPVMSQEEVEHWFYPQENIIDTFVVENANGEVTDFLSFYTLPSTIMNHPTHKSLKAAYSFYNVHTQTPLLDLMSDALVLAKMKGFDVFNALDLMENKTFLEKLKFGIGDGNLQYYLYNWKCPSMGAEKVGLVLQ
Description: This study evaluated the ability of the compounds of the invention to inhibit NMT1 catalytic activity in vitro. The experiment used a FI (Fluorescence Intensity) analysis method, characterizing NMT1 inhibitors under conditions of 1.25 µM myristoyl-CoA (Lithium salt, Sigma, M4414). In this experiment, a synthesized peptide with the sequence H-Gly-Ser-Asn-Lys-Ser-Lys-Pro-Lys-NH2, HSPP60SRC (Nanjing Peptide Industry, NJP23953), was used as the reaction substrate. The final concentration of the NMT1 enzyme was 6 nM, the final concentration of CPM (Reactive thiol fluorescence probe, Invitrogen, D346) was 1 µM, the final concentration of HSPP60 SRC was 20 µM, and the final concentration of DMSO was 0.5%.
Compounds were dissolved in DMSO to obtain 10 mM stock solutions. Dose-response solutions were prepared with a top endpoint compound concentration of 3 mM, followed by three-fold serial dilutions in DMSO, totaling ten data points. Using an ECHO acoustic liquid handler (BECKMAN, ECHO 655 system), 0.05 µL of the diluted compound solutions was transferred to a 384-well assay plate (Corning, CLS4514). Then, 2.5 µL of the NMT1 enzyme working solution was added to the 384-well assay plate, followed by incubation at 25 °C for 10 minutes. Subsequently, 5 µL of the CPM and myristoyl-CoA working solution was added, the plate was centrifuged at 1000 rpm for 1 minute, and then 2.5 µL of the HSPP60 SRC working solution was added to initiate the reaction. The reaction was incubated at 25 °C for 45 minutes. The FI signal ([…]; ex: 405 nm) was detected using an HTS high-throughput screening multifunctional microplate reader (BMG, PHERA star FSX).
The inhibition rate of the compounds on NMT1 enzyme catalytic activity was calculated using the following formula: Inhibition Percentage (%) = 100 * (Mean of DMSO group - Mean of Compound group) / (Mean of DMSO group - Mean of Blank control group). The IC50 curve of the compounds was fitted using the software XLfit 5.5.0 according to the nonlinear regression equation. Table 1 provides the inhibitory activity of the compounds of the invention on NMT1 enzyme catalysis.

Row | SMILES | IC50 ([1]; Homo sapiens, MV4-11, 72 h) | IC50 [2] | IC50 [1]
1 | Cc1c(CCOc2ccc(F)cc2-c2ccn3ncc(CN(C)C)c3c2)c(C(=O)N(C)C)nn1C [Compound 6, 4-{2-[(2-{3-[(dimethylamino)methyl]pyrazolo[1,5-a]pyridin-5-yl}-4-fluorophenyl)oxy]ethyl}-1,5,N,N-tetrameth ylpyrazole-3-carboxamide] | 30.2 nM | 2.89 nM | –
2 | CNCc1cnn2ccc(-c3ccc(F)cc3OCCc3c(C(C)O)nn(C)c3C)cc12 (stereo not drawn) [Compound 35, 1-(4-{2-[(5-fluoro-2-{3-[(methylamino)methyl]pyrazolo[1,5-a]pyridin-5-yl}phenyl)oxy]ethyl}-1,5-dimethylpyrazol-3-yl)ethan-1-ol] | 5.04 nM | 2.05 nM | –
3 | Cc1c(CCOc2cc(F)ccc2-c2ccn3ncc(CN(C)C)c3c2)c(C(=O)N(C)C)nn1C [Compound 4, 4-{2-[(2-{3-[(dimethylamino)methyl]pyrazolo[1,5-a]pyridin-5-yl}-5-fluorophenyl)oxy]ethyl} -1 ,5,N,N-tetrameth ylpyrazole-3-carboxamide] | 11.4 nM | 1.65 nM | –
4 | CNCc1cnn2ccc(-c3ccc(Cl)cc3OCCc3c(C(=O)N(C)C)nn(C)c3C)cc12 [Compound 2, 4-{2-[(5-chloro-2-{3-[(methylamino)methyl]pyrazolo[1,5-a]pyridin-5-yl}phenyl)oxy]ethyl}-1,5,N,N-tetramethyl pyrazole-3-carboxamide] | 23.4 nM | 2.13 nM | –
5 | CNCc1cnn2ccc(-c3ccc(F)cc3OCCc3c(C(C)(C)O)nn(C)c3C)cc12 [Compound 33, 2-(4-{2-[(5-fluoro-2-{3-[(methylamino)methyl]pyrazolo[1,5-a]pyridin-5-yl}phenyl)oxy]ethyl}-1,5-dimethylpyrazol-3-yl)propan-2-ol] | 5.49 nM | 2.13 nM | –
6 | CCN(C)C(=O)c1nn(C)c(C)c1CCOc1cc(Cl)ccc1-c1ccn2ncc(CN(C)C)c2c1 [Compound 19, 4-{2-[(5-chloro-2-{3-[(dimethylamino)methyl]pyrazolo[1,5-a]pyridin-5-yl}phenyl)oxy]ethyl}-N-ethyl-1,5,N-tri methylpyrazole-3-carboxamide] | 29.8 nM | 3.21 nM | –
7 | CNCc1cnn2ccc(-c3ccc(F)c(F)c3OCCc3c(C(=O)N(C)C)nn(C)c3C)cc12 [Compound 21, 4-{2-[(2,3-difluoro-6-{3-[(methylamino)methyl]pyrazolo[1,5-a]pyridin-5-y 1}phenyl)oxy]ethyl}-1,5,N,N-tetramet hylpyrazole-3-carboxamide] | < 10 nM | 1.61 nM | 5.91 nM
8 | Cc1c(CCOc2cc(Cl)ccc2-c2ccn3ncc(CN(C)C)c3c2)c(C(=O)N(C)C)nn1C [Compound 1, 4-{2-[(5-chloro-2-{3-[(dimethylamino)methyl]-pyrazolo [1,5-a]pyridin-5-yl}phenyl)oxy]ethyl}-1,5,N,N-tetramethylpyrazole-3-carboxamide] | 17.1 nM | 1.77 nM | –
9 | Cc1c(CCOc2c(-c3ccn4ncc(CN(C)C)c4c3)ccc(Cl)c2Cl)c(C(=O)N(C)C)nn1C [Compound 9, 4-{2-[(2,3-dichloro-6-{3-[(dimethylamino)methyl]pyrazolo[1,5-a]pyridin-5-yl}phenyl)oxy]ethyl}-1,5,N,N-tetra methylpyrazole-3-carboxamide] | 32.5 nM | 3.68 nM | –
10 | CNCc1cnn2ccc(-c3ccc(F)c(F)c3OCCc3c(C(=O)NC)nn(C)c3C)cc12 [Compound 22, 4-{2-[(2,3-difluoro-6-{3-[(methylamino)methyl]pyrazolo[1,5-a]pyridin-5-yl}phenyl)oxy]ethyl}-1,5,N-trimethylp yrazole-3-carboxamide] | 10.6 nM | 1.89 nM | –
11 | Cc1c(CCOc2c(-c3ccn4ncc(CN(C)C)c4c3)ccc(F)c2F)c(C(=O)N(C)C)nn1C [Compound 7, 4-{2-[(6-{3-[(dimethylamino)methyl]pyrazolo[1,5-a]pyridin-5-yl}-2,3-difluorophenyl)oxy]ethyl}-1,5,N,N-tetram ethylpyrazole-3-carboxamide] | 19.4 nM | 2.1 nM | –

Further lines, results first:

Row | IC50 ([1]; Homo sapiens, MV4-11, 72 h) | IC50 [2] | IC50 [1] | SMILES
12 | 26.4 nM | 2.59 nM | – | Cc1c(CCOc2c(F)cc(F)cc2-c2ccn3ncc(CN(C)C)c3c2)c(C(=O)N(C)C)nn1C [Compound 10, 4-{2-[(6-{3-[(dimethylamino)methyl]pyrazolo[1,5-a]pyridin-5-yl}-2,4-difluorophenyl)oxy]ethyl}-1,5,N,N-tetram ethylpyrazole-3-carboxamide]
13 | 58.7 nM | 6.31 nM | – | Cc1c(COc2cc(Cl)ccc2-c2ccn3ncc(CN(C)C)c3c2)c(C(=O)N(C)C)nn1C [Compound 11, 4-{[(5-chloro-2-{3-[(dimethylamino)methyl]pyrazolo[1,5-a]pyridin-5-yl}phenyl)oxy]methyl}-1,5,N,N-tetrameth ylpyrazole-3-carboxamide]
14 | < 10 nM | 1.82 nM | 5.56 nM | CNCc1cnn2ccc(-c3ccc(F)c(F)c3OCCc3c(C#N)nn(C)c3C)cc12 [Compound 27, 4-{2-[(2,3-difluoro-6-{3-[(methylamino)methyl]pyrazolo[1,5-a]pyridin-5-yl}phenyl)oxy]ethyl}-1,5-dimethylpyr azole-3-carbonitrile]
15 | 11.8 nM | 1.74 nM | – | Cc1c(CCOc2c(F)cccc2-c2ccn3ncc(CN(C)C)c3c2)c(C(=O)N(C)C)nn1C [Compound 5, 4-{2-[(6-{3-[(dimethylamino)methyl]pyrazolo[1,5-a]pyridin-5-yl}-2-fluorophenyl)oxy]ethyl} -1 ,5,N,N-tetrameth ylpyrazole-3-carboxamide]
16 | 10.7 nM | 1.95 nM | – | CNCc1cnn2ccc(-c3ccc(F)c(F)c3OCCc3c(CC#N)nn(C)c3C)cc12 [Compound 28, (4-{2-[(2,3-difluoro-6-{3-[(methylam ino)methyl]pyrazolo[1,5-a]pyridin-5-yl}phenyl)oxy]ethyl}-1,5-dimethylpyrazol-3-yl)acetonitrile]
17 | 25.8 nM | 3.26 nM | – | CNCc1cnn2ccc(-c3ccc(F)c(F)c3OCCc3c(C(C)C)nn(C)c3C)cc12 [Compound 25, 5-[2-({2-[1,5-dimethyl-3-(prop-2-yl)pyrazol-4-yl]ethyl}oxy)-3,4-difluorophenyl]-3-[(methylamino)methyl]pyrazo lo[1,5-a]pyridine]
